# US20170150719A1, “FUNGICIDAL PYRAZOLES AND THEIR MIXTURES” (E I DU PONT DE NEMOURS AND COMPANY, priority 2010, published 2017)
# Tests used:
# [1] = system: Septoria tritici; experiment: Tests N1 and N2: growth inhibition of Septoria tritici on solid medium in 96-well plates, absorbance at 600 nm, observed and Colby expected; assay type: cell-based; settings: Zymoseptoria tritici
# Description: Tests N1 and N2 involved evaluation of mixtures of Compound 81 with 2-[(3-bromo-8-methyl-6-quinolinyl)oxy]-N-(1,1-dimethyl-2-propyn-1-yl)-2-(methylthio)acetamide (Compound A1) and 2-[(3-bromo-6-quinolinyl)oxy]-N-(1,1-dimethylethyl)butanamide (Compound A2), respectively, for inhibiting the growth of Septoria tritici (the causal agent of wheat leaf blotch). The general protocol for preparing test compositions was as follows. Compound 81 (Tests N1 and N2), Compound A1 (Test N1) and Compound A2 (Test N2) were obtained as unformulated, technical-grade materials. Unformulated test compounds were first dissolved in DMSO at the appropriate concentration to provide the desired concentration (in μM) after mixing with the fungal growth medium in the wells of 96-well plates containing 200 μL fungal growth medium per well. The ranges of compound concentrations were chosen to span a range of inhibitory activity from 0 to near 100% to identify any synergistic action when Septoria tritici was treated with compounds added in combination. The DMSO solutions of the test compounds were added to the wells prior to addition of the fungal growth medium.
# The fungal growth solid medium was prepared by forming an aqueous mixture containing dipotassium hydrogen phosphate (3.0 g/L), potassium dihydrogen phosphate (4.0 g/L), sodium chloride (0.5 g/L), ammonium chloride (1.0 g/L), magnesium sulfate heptahydrate ([…]) and calcium chloride dihydrate (0.01 g/L), also containing 1 mL/L of a trace element solution (manganese sulfate hydrate (0.1 mg/mL), zinc sulfate heptahydrate (0.2 mg/mL), copper(II) sulfate pentahydrate (0.2 mg/mL), iron(II) sulfate heptahydrate (0.2 mg/mL), sodium molybdate dihydrate (0.1 mg/mL), cobalt(II) sulfate heptahydrate (0.06 mg/mL), boric acid (0.08 mg/mL)), and supplemented with 50 μL/L of a biotin stock solution (0.1 mg/mL). The pH was adjusted to 6.8 with aqueous 1 M sodium carbonate solution. The mixture was further supplemented with 1 g/L of yeast extract, and GELRITE gellan gum (Kelco) (4 g/L) was added. Sufficient water was added to bring the volume to 90% of final volume (e.g., 900 mL volume for preparation of 1 L of fungal growth medium). The mixture was autoclaved. On cooling to 60° C., 100 mL/L of aqueous dextrose solution (10 g/L), 500 μL/L of aqueous ampicillin solution (100 mg/mL) and 500 μL/L of rifampicin solution (10 mg/mL in DMSO) were added to provide the final volume of fungal growth medium, which was then dispensed while still warm using a microliter pipette to the wells of the 96-well plates. The dispensed fungal growth medium in each well was agitated using the tip of the dispensing pipette to mix it with the DMSO solution containing the test compounds.
# After the fungal growth medium in the wells had cooled to room temperature and solidified, the top surface of the growth medium in each well was inoculated with 20 μL of a suspension of fungus containing 8×10^4 cells. Following a 2 h period of drying in a sterile hood, plates were placed in a dark incubator at 25° C. for 5 d.
# Fungal growth was assessed on a plate reader set to measure absorbance of 600 nm light. The percent growth inhibition observed (Obsd.) in Tests N1 and N2, as well as the percent growth inhibition expected (Exp.) from calculation using the Colby equation, are listed in Tables L and M, respectively.
# [2] = system: Septoria tritici; experiment: Test F: wheat leaf blotch, preventive spray on wheat seedlings, visual disease rating; assay type: in vivo; settings: 100 = 100% disease control; for pest or weed control at 200 µg/mL: Zymoseptoria tritici
# Description: (§1) A hyphen (-) indicates no test results.
# [3] = system: Puccinia recondita f. sp. tritici; experiment: Test G: wheat leaf rust, spray after inoculation (curative) on wheat seedlings, visual disease rating; assay type: in vivo; settings: 100 = 100% disease control
# Description: as §1
# [4] = system: Puccinia recondita f. sp. tritici; experiment: Test H: wheat leaf rust, preventive spray on wheat seedlings, visual disease rating; settings: 100 = 100% disease control; for pest or weed control at 200 µg/mL: read-out: Test H rating (disease control), wheat leaf rust, sprayed the day before inoculation
# Description: (§2) General protocol for preparing test suspensions for Tests A-I: the test compounds were first dissolved in acetone in an amount equal to 3% of the final volume and then suspended at the desired concentration (in ppm) in acetone and purified water (50/50 mix by volume) containing 250 ppm of the surfactant Trem® 014 (polyhydric alcohol esters). The resulting test suspensions were then used in Tests A-I. Each test was conducted in triplicate, and the results were averaged. Spraying a 200 ppm test suspension to the point of run-off on the test plants was the equivalent of a rate of about 800 g/ha. Unless otherwise indicated, the rating values indicate a 200 ppm test suspension was used. (An asterisk “*” next to the rating value indicates a 40 ppm test suspension was used.)
# The test suspension was sprayed to the point of run-off on wheat seedlings. The following day the seedlings were inoculated with a spore suspension of Puccinia recondita f. sp. tritici (the causal agent of wheat leaf rust) and incubated in a saturated atmosphere at 20° C. for 24 h, and then moved to a growth chamber at 20° C. for 6 days, after which time visual disease ratings were made.
# [5] = system: Botrytis cinerea; experiment: Test A: tomato Botrytis, preventive spray on tomato seedlings, visual disease rating; settings: 100 = 100% disease control; for pest or weed control at 200 µg/mL: Botrytis cinerea, in Solanum lycopersicum, read-out: Test A rating (disease control), tomato Botrytis
# [6] = system: Alternaria solani; experiment: Test B: tomato early blight, preventive spray on tomato seedlings, visual disease rating; settings: for pest or weed control at 200 µg/mL: Alternaria solani, in Solanum lycopersicum, read-out: Test B rating (disease control)
# [7] = system: Blumeria graminis f. sp. tritici; experiment: Test I: wheat powdery mildew, preventive spray on wheat seedlings, visual disease rating; settings: 100 = 100% disease control; for pest or weed control at 200 µg/mL: Blumeria graminis, in Triticum aestivum, read-out: Test I rating (disease control), wheat powdery mildew
# [8] = system: Septoria nodorum; experiment: Test E: Septoria glume blotch, preventive spray on wheat seedlings, visual disease rating; settings: 100 = 100% disease control; for pest or weed control at 200 µg/mL: Parastagonospora nodorum, in Triticum aestivum, read-out: Test E rating (disease control), Septoria glume blotch
# Description: as §2
# The test suspension was sprayed to the point of run-off on wheat seedlings. The following day the seedlings were inoculated with a spore suspension of Septoria nodorum (the causal agent of Septoria glume blotch) and incubated in a saturated atmosphere at 24° C. for 48 h, and then moved to a growth chamber at 20° C. for 9 days, after which time visual disease ratings were made.
# [9] = system: Phytophthora infestans; experiment: whole plant or invertebrate; assay type: in vivo; settings: for pest or weed control at 200 µg/mL: Phytophthora infestans, in Solanum lycopersicum, read-out: Test C rating (disease control)
# [10] = 0 = no disease control relative to the controls
# [11] = sprayed after inoculation, 0 = no disease control
smiles,measurement,setting,value
"Cc1nn(C)c(Nc2c(F)cccc2Br)c1-c1ccc(F)cc1Br [Compound 244, 4-(2-bromo-4-fluorophenyl)-N-(2-bromo-6-fluorophenyl)-1,3-dimethyl-1H-pyrazol-5-amine]",melting point,,154 to 156 °C
"CCC(Oc1ccc2ncc(Br)cc2c1)C(=O)NC(C)(C)C (stereo not drawn) [Compound A2, 2-[(3-bromo-6-quinolinyl)oxy]-N-(1,1-dimethylethyl)butanamide, reference compound]",inhibition at 0.032 µM,"[1]; Compound A2 alone 0.032 μM, read-out: % inhibition Obsd. (Test N2)",0%
same,inhibition at 0.16 µM,"[1]; Compound A2 alone 0.16 μM, read-out: % inhibition Obsd. (Test N2)",6.5%
same,inhibition at 0.8 µM,"[1]; Compound A2 alone 0.8 μM, read-out: % inhibition Obsd. (Test N2)",11.5%
same,inhibition at 4 µM,"[1]; Compound A2 alone 4 μM, read-out: % inhibition Obsd. (Test N2)",95%
same,inhibition at 20 µM,"[1]; Compound A2 alone 20 μM, read-out: % inhibition Obsd. (Test N2)",96%
"Cc1nn(C)c(Nc2c(F)cc(F)cc2Cl)c1-c1ccc(C#N)cc1F [Compound 238, 4-[5-[(2-chloro-4,6-difluorophenyl)amino]-1,3-dimethyl-1H-pyrazol-4-yl]-3-fluorobenzonitrile]",melting point,,177 to 179 °C
"C#CC(C)(C)NC(=O)C(Oc1cc(C)c2ncc(Br)cc2c1)SC (stereo not drawn) [Compound A1, 2-[(3-bromo-8-methyl-6-quinolinyl)oxy]-N-(1,1-dimethyl-2-propyn-1-yl)-2-(methylthio)acetamide, reference compound]",inhibition at 0.00032 µM,"[1]; Compound A1 alone 0.00032 μM, read-out: % inhibition Obsd. (Test N1)",3%
same,inhibition at 0.0016 µM,"[1]; Compound A1 alone 0.0016 μM, read-out: % inhibition Obsd. (Test N1)",5%
same,inhibition at 0.008 µM,"[1]; Compound A1 alone 0.008 μM, read-out: % inhibition Obsd. (Test N1)",14.5%
same,inhibition at 0.04 µM,"[1]; Compound A1 alone 0.04 μM, read-out: % inhibition Obsd. (Test N1)",97%
same,inhibition at 0.2 µM,"[1]; Compound A1 alone 0.2 μM, read-out: % inhibition Obsd. (Test N1)",98%
"Cc1nn(C)c(Nc2c(F)cccc2Br)c1-c1c(F)cccc1F [Compound 247, N-(2-bromo-6-fluorophenyl)-4-(2,6-difluorophenyl)-1,3-dimethyl-1H-pyrazol-5-amine]",melting point,,127 to 129 °C
"Cc1nn(C)c(Nc2ccc(Cl)cc2F)c1-c1c(F)cc(C#N)cc1F [Compound 40, 4-[5-[(4-chloro-2-fluorophenyl)amino]-1,3-dimethyl-1H-pyrazol-4-yl]-3,5-difluorobenzonitrile]",pest or weed control at 200 µg/mL,[2]; [10],100%
same,pest or weed control at 200 µg/mL,[3]; [11],63%
same,melting point,,93 to 95 °C
same,pest or weed control at 200 µg/mL,[4]; 0 = no disease control,100%
same,pest or weed control at 200 µg/mL,[5]; [10],99%
same,pest or weed control at 200 µg/mL,[6],99%
same,pest or weed control at 200 µg/mL,[7]; [10],100%
same,pest or weed control at 200 µg/mL,[8]; [10],100%
Cc1nn(C)c(Nc2ccc(Cl)cc2F)c1-c1c(F)cccc1F [compound 162],Test C rating (disease control),"[9]; tomato late blight, 100 = 100% disease control, 0 = no disease control relative to the controls",0%
same,Test F rating (disease control),[2]; [10],100%
same,Test G rating (disease control),[3]; [11],9%
same,Test H rating (disease control),"[4]; wheat leaf rust, sprayed the day before inoculation, 0 = no disease control",100%
same,Test A rating (disease control),"[5]; tomato Botrytis, 0 = no disease control relative to the controls",100%
same,Test B rating (disease control),"[6]; tomato early blight, 100 = 100% disease control, 0 = no disease control relative to the controls",88%
same,Test I rating (disease control),"[7]; wheat powdery mildew, 0 = no disease control relative to the controls",100%
same,Test E rating (disease control),"[8]; Septoria glume blotch, 0 = no disease control relative to the controls",0%
"Cc1nn(C)c(Nc2c(F)cccc2Br)c1-c1ccc(F)cc1F [Compound 245, N-(2-bromo-6-fluorophenyl)-4-(2,4-difluorophenyl)-1,3-dimethyl-1H-pyrazol-5-amine]",melting point,,149 to 151 °C
"Cc1nn(C)c(Nc2c(F)cc(Br)cc2F)c1-c1c(F)cccc1F [Compound 145, N-(4-bromo-2,6-difluorophenyl)-4-(2,6-difluorophenyl)-1,3-dimethyl-1H-pyrazol-5-amine]",pest or weed control at 200 µg/mL,[9],0%
same,pest or weed control at 200 µg/mL,[2]; [10],100%
same,pest or weed control at 200 µg/mL,[3]; [11],0%
same,pest or weed control at 200 µg/mL,[4]; 0 = no disease control,28%
same,pest or weed control at 200 µg/mL,[5]; [10],99%
same,pest or weed control at 200 µg/mL,[6],0%
same,pest or weed control at 200 µg/mL,[7]; [10],90%
same,pest or weed control at 200 µg/mL,[8]; [10],0%
Cc1nn(C)c(Nc2c(F)cc(Cl)cc2I)c1-c1ccc(F)cc1F [compound 180],Test C rating (% disease control),"[9]; tomato late blight, preventive spray, 100 = 100% disease control, rating without asterisk",9%
same,Test F rating (% disease control),"[2]; preventive spray, rating without asterisk",100%
same,Test G rating (% disease control),"[3]; spray after inoculation, rating without asterisk",98%
same,Test H rating (% disease control),"[4]; wheat leaf rust, preventive spray, rating without asterisk",100%
same,Test A rating (% disease control),"[5]; tomato Botrytis, preventive spray, 0 = no control relative to controls, rating without asterisk",100%
same,Test B rating (% disease control),"[6]; tomato early blight, preventive spray, 100 = 100% disease control, rating without asterisk",100%
same,Test I rating (% disease control),"[7]; wheat powdery mildew, preventive spray, rating without asterisk",100%
same,Test E rating (% disease control),"[8]; Septoria glume blotch on wheat, preventive spray, rating without asterisk",99%
"Cc1nn(C)c(Nc2c(F)cc(Cl)cc2Cl)c1-c1ccc(F)cc1Cl [Compound 136, 4-(2-chloro-4-fluorophenyl)-N-(2,4-dichloro-6-fluorophenyl)-1,3-dimethyl-1H-pyrazol-5-amine]",pest or weed control at 200 µg/mL,[9],0%
same,pest or weed control at 200 µg/mL,[2]; [10],100%
same,pest or weed control at 200 µg/mL,[3]; [11],100%
same,pest or weed control at 200 µg/mL,[4]; 0 = no disease control,100%
same,pest or weed control at 200 µg/mL,[5]; [10],100%
same,pest or weed control at 200 µg/mL,[6],100%
same,pest or weed control at 200 µg/mL,[7]; [10],100%
same,pest or weed control at 200 µg/mL,[8]; [10],100%
